Measurements taken from patent publication US7153977B2, “Ligands and methods for preparing same” (National University of Singapore, priority 2000, dated 2006).
Read-outs that look alike come from different tables or passages of the source. Blank lines part the entries; values can stand above or below the molecule they belong to.

What was measured:
[1] = target: T1, es nucleoside transporter (human HL-60 promyelocytic leukemia plasma membranes) (Homo sapiens, UniProt Q99808); assay: 3H-NBMPR binding to HL-60 plasma membranes; design: Bmax of 3H-NBMPR binding in presence of CrMCC: unit not given here; details: for IC50: 5 min pretreatment, 5 nM 3H-NBMPR 30 min, read-out: IC50 of inhibition of specific 3H-NBMPR binding
T1 sequence (Q99808 1-456): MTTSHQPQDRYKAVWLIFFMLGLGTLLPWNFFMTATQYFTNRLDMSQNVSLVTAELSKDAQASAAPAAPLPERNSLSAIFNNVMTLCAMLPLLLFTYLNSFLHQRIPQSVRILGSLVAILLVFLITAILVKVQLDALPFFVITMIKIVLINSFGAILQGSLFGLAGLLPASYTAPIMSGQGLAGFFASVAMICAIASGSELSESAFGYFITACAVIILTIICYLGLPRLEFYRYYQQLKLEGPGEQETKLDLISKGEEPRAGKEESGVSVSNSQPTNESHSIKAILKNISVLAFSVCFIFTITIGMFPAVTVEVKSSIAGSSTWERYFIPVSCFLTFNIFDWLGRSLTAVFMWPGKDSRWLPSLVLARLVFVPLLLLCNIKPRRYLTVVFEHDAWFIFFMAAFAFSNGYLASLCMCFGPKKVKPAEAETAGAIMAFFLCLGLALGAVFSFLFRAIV

[2] = Hydrophobicity on C18 reversed-phase column; type: physicochemical; details: compared with cytidine and SMCC
Procedure: N-Succinimidyl 4-[N-maleimidomethyl]cyclohexane-1-carboxylate (SMCC) and cytidine were dissolved in anhydrous dimethysulfoxide (DMSO) separately prior reaction. The reaction started when these two reagents were mixed at room temperature and shielded from light. The molar concentration ratio of SMCC:cytidine in the mixture was 0.10 M:0.15 M with pH 7.5–8.0 in the reaction system. Within 4 hrs, CrMCC was found in the reaction mixture and can be separated from cytidine and SMCC by a C18 reversed-phase column (Resource RPC, Pharmacia) operated on a HPLC (AKTA Purifier, Pharmacia) using the absorbance wavelength of 300 nm. Cytidine was eluted by 100% water and CrMCC and SMCC were eluted by 15% acetonitrile in water with the flow rate 1.5 ml/min. […] Formation of CrMCC reached its near maximum after 48 hrs of reaction between SMCC and cytidine at 22–24° C. (FIG. 4). The area under the peak was calculated using a computer program UNICORN (version 2.0).

[3] = system: es nucleoside transporter (human HL-60 promyelocytic leukemia plasma membranes); assay: 3H-CrMCC binding to HL-60 plasma membranes
HL-60 cells = assay: Growth of HL-60 cells; details: 3 days of exposure; for effect on HL-60 cell growth: concentrations as high as 100 μM
[4] = Storage stability of lyophilized CrMCC; type: physicochemical; details: −20° C. in a desiccator
[5] = system: T2, 5-HT receptor (3H-5-HT high and low affinity binding sites of murine brain membranes); assay: Inhibition of 3H-5-HT binding to murine brain membranes; details: for IC50: 5 min pretreatment, 5 nM 3H-5-HT 30 min
T2 construct: other: 5 min pretreatment, 5 nM 3H-5-HT 30 min
Procedure: (§1) Purified murine brain membranes suspended in reaction buffer (0.13 M NaCl, 0.02 M NaHCO3, pH 7.0) were pretreated with graded concentrations of LBT3001 (▪), LBT3002 (□), LBT3004 (∘), and LBT3005 (●) for 5 min prior exposure to ^3H-5-HT (5 nM final concentration) for additional 30 min. The reaction was terminated by membrane vacuum filtration method. […] The results were plotted against control binding determined in the absence of inhibitors.

[6] = target: 5-HT receptor (3H-5-HT high and low affinity binding sites of murine brain membranes); assay: as above; details: 5 min pretreatment, 5 nM 3H-5-HT 30 min
Procedure: as §1

[7] = target: T3, es transport system in murine EL-4 cells (Mus musculus, UniProt Q9JIM1); assay: NEM inhibition of 3H-uridine transport in EL-4 cells (only es)
T3 sequence (Q9JIM1 1-460): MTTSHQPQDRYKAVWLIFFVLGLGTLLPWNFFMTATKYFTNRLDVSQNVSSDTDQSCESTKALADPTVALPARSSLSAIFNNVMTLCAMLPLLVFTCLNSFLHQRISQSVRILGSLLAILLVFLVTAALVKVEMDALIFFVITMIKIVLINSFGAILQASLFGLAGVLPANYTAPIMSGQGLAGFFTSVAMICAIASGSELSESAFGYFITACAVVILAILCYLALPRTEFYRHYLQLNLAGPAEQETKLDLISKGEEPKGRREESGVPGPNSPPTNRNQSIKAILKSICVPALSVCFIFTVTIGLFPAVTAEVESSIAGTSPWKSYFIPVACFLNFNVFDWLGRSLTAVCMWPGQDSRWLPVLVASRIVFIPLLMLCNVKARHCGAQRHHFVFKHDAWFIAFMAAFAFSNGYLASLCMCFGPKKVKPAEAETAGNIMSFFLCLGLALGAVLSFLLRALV

[8] = target: T4, ei transport system in rat Morris 7777 cells (Rattus norvegicus, UniProt O54699); assay: NEM inhibition of 3H-uridine transport in Morris 7777 cells (only ei)
T4 sequence (O54699 1-456): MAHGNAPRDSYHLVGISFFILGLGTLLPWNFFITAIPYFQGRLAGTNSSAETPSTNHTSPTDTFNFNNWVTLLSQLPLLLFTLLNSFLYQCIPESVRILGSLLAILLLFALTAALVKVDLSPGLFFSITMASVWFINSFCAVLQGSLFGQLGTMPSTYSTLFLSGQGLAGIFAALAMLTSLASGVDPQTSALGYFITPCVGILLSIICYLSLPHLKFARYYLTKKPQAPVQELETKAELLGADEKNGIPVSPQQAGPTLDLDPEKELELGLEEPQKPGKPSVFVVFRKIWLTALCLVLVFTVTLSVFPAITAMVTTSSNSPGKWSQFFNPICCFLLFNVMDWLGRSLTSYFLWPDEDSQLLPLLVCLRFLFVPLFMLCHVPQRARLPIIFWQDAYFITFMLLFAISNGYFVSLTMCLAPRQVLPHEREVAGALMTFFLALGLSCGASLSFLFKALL

es transporter protein = target: T5, es transporter protein (Mus musculus, UniProt Q9JIM1); details: Lee et al. (1995), cited from earlier work
T5 sequence (Q9JIM1 1-460): T3 sequence (Q9JIM1 1-460)

[9] = target: T6, es nucleoside transporter (Homo sapiens, UniProt Q99808); details: known from the art; cited from earlier work
T6 sequence (Q99808 1-456): T1 sequence (Q99808 1-456)

[10] = 1 mM physiological nucleoside, 30 μM 3H-CrMCC

Molecule: 1-[[4-[(4-amino-1-β-D-ribofuranosyl-2(1H)-pyrimidione)carbonyl]cyclohexyl]methyl]-1H-pyrrole-2,5-dione [CrMCC]
Bmax of 3H-NBMPR binding in presence of CrMCC ([1]; HL-60 membranes pretreated with 10 μM CrMCC 5 min): 0.59±0.01
Bmax of 3H-NBMPR binding in presence of CrMCC ([1]; HL-60 membranes pretreated with 50 μM CrMCC 5 min): 0.30±0.01
IC50 ([1]; HL-60 plasma membranes): 10 µM
Ki ([1]; HL-60 plasma membranes, read-out: Ki (calculated) for 3H-NBMPR binding): 1 µM
mode of inhibition of 3H-NBMPR binding ([1]; double reciprocal plot): non-competitive inhibition
hydrophobicity [2]: greater than that of cytidine but is less than that of SMCC
time needed to achieve maximum binding ([3]; 30 μM 3H-CrMCC): ≥ 5 min
dissociation from binding sites after 20-fold dilution ([3]; 30 μM radioligand 10 min, then 20-fold dilution, room temperature, up to at least 60 min): little or no dissociation
pH below which ligand-receptor complexes began to break down ([3]; buffers pH 0.85 to 7.5): below 3.5
stability of 3H-CrMCC-receptor complexes ([3]; physiological pH, 20-fold dilution in buffer): very stable
Kd ([3]; read-out: Kd of high affinity component, 3 to 800 μM 3H-CrMCC, 10 min): 23.8 ± 2.2 µM
effect on HL-60 cell growth (HL-60 cells): little or no effect
stability of activity on storage [4]: stable for at least three months

Molecule: CCN1C(=O)C=CC1=O [NEM, N-Ethylmaleimide]
IC50 [7]: ~100 µM
inhibition of 3H-CrMCC binding ([3]; 1 mM NEM, 30 μM 3H-CrMCC): as effective as 0.5 mM of CrMCC
IC50 [8]: ~1500 µM

Molecule: O=C(ON1C(=O)CCC1=O)C1CCC(CN2C(=O)C=CC2=O)CC1 (stereo not drawn) [SMCC, N-Succinimidyl 4-[N-maleimidomethyl]cyclohexane-1-carboxylate, reference compound]
IC50 ([1]; HL-60 plasma membranes): 100 µM
IC50 (HL-60 cells; read-out: IC50 on cell growth, HL-60 cells): < 0.5 µM

Molecule: Nc1ncnc2c1ncn2[C@@H]1O[C@H](CO)[C@@H](O)[C@H]1O [adenosine]
inhibition of 3H-CrMCC binding [3, 10]: failed to inhibit

Molecule: Nc1ccn([C@@H]2O[C@H](CO)[C@@H](O)[C@H]2O)c(=O)n1 [cytidine]
level of binding to HL-60 plasma membranes ([3]; 30 μM radioligand): low
displacement of 3H-CrMCC from its binding sites ([3]; 1 mM in the dilution medium): failed to displace
inhibition of 3H-CrMCC binding [3, 10]: failed to inhibit
effect on HL-60 cell growth (HL-60 cells): little or no effect

Molecule: COc1cc(C(=O)OCCCN2CCCN(CCCOC(=O)c3cc(OC)c(OC)c(OC)c3)CC2)cc(OC)c1OC [dilazep]
protection of sulfhydryl group from NEM modification (es transporter protein; at 30 μM): incapable of protecting
rate of binding of reversible antagonists [9]: rapid and mostly completed within first minute of incubation

Molecule: OCCN(CCO)c1nc(N2CCCCC2)c2nc(N(CCO)CCO)nc(N3CCCCC3)c2n1 [dipyridamole]
inhibition of 3H-CrMCC binding ([3]; 20 μM es nucleoside transport inhibitor, 30 μM 3H-CrMCC): failed to inhibit
protection of sulfhydryl group from NEM modification (es transporter protein; at 30 μM): incapable of protecting

Molecule: OC[C@H]1O[C@@H](n2cnc3c(O)ncnc32)[C@H](O)[C@@H]1O [inosine]
inhibition of 3H-CrMCC binding [3, 10]: failed to inhibit

Molecule: O=c1ccn([C@@H]2O[C@H](CO)[C@@H](O)[C@H]2O)c(=O)[nH]1 [uridine]
inhibition of 3H-CrMCC binding [3, 10]: failed to inhibit
protection of sulfhydryl group from NEM modification (es transporter protein; at 10 mM): incapable of protecting

Continued, in another order:

IC50 [5]: ~1 nM
IC50 [6]: ~50 µM
Molecule: O=C1C=CC(=O)N1CCc1c[nH]c2ccc(O)cc12 [LBT3001, 1-[2-(5-hydroxy-1H-indol-3-yl)-ethyl]-pyrrole-2,5-dione]
efficacy as irreversible binding compounds [5]: demonstrated efficacy as irreversible binding compounds

IC50 [5]: ~0.03 nM
IC50 [6]: ~200 µM
Molecule: O=C(CCCN1C(=O)C=CC1=O)NCCc1c[nH]c2ccc(O)cc12 [LBT3002, 4-(2,5-dioxo-2,5-dihydro-pyrrol-1-yl)-N-[2-(5-hydroxyl-1H-indol-3-yl)-ethyl]-butyramide]
efficacy as irreversible binding compounds [5]: demonstrated efficacy as irreversible binding compounds

IC50 [5]: ~200 nM
IC50 [6]: ~50 µM
Molecule: O=C(CCN1C(=O)C=CC1=O)NCCc1c[nH]c2ccc(O)cc12 [LBT3004, 3-(2,5-dioxo-2,5-dihydro-pyrrol-1-yl)-N-[2-(5-hydroxyl-1H-indol-3-yl)-ethyl]-propionamide]
efficacy as irreversible binding compounds [5]: demonstrated efficacy as irreversible binding compounds

IC50 [5]: 500 nM
IC50 [6]: 300 µM
Molecule: O=C(NCCc1c[nH]c2ccc(O)cc12)C1CCC(CN2C(=O)C=CC2=O)CC1 (stereo not drawn) [LBT3005, 4-(2,5-dioxo-2,5-dihydro-pyrrol-1-yl-methyl)-cyclohexane carboxylic acid [2-(5-hydroxy-1H-indol-3-yl)-ethyl]-amide]
efficacy as irreversible binding compounds [5]: demonstrated efficacy as irreversible binding compounds
